Source: patent publication US20040234580A1, “Animal feeds including actives and methods of using the same” (priority 2001, published 2004)

Key:
[1] = Storage stability of ivermectin in extruded dog food (HPLC content, frozen versus ambient); assay type: physicochemical
Protocol: Following this treatment, the product was dried to a moisture level of less than 10% by weight. Three samples from the dryer were subsequently frozen and another […] placed in a plastic bag and stored at room temperature, for a period in excess of six months.
The products resulting from this test were analyzed to determine the content of ivermectin in the samples. In this analysis, each feed sample was ground in a Retsch mill at low speed using a 2 mm grating screen, so that the ground material would pass through a #10 mesh screen. A total of six samples, three frozen and three stored at room temperature, were processed. In each case, three 37.5 g of a sample was placed in a 250 ml bottle and 100 ml of methanol was added. The bottle was capped, the sample was sonicated for 20 minutes and shaken for 1 hour. 40 ml of the extract was added to a centrifuge tube and centrifuged for 5 minutes at 2000 rpm. 20 ml of the supernatant solution was then passed through a alumina column. The first five ml was rejected and the remainder of the liquid through the column was collected as a purified sample. 2 ml of the purified sample was mixed with a 5 ml mixture of acetonitrile:water (1:1), and a solid phase extraction (SPE) was performed in accordance with the procedure described in Doherty et al., Analytical Chemists International, 81:869(4) (1998). […]

[2] = Ivermectin content of dog blood after ad libitum feeding of ivermectin-containing dog food (HPLC); assay type: in vivo; settings: female mixed breed dog about 10 kg; Example 2 feed (approx. 1121.1 μg ivermectin/kg db) ad libitum; blood drawn four hours after eating, day 7 and seven days later
Protocol: The dog food from this run was fed ad libitum to an intact female mixed breed dog weighing about 10 kg. On day 7, blood was drawn from the dog four hours after eating and stored in an anti-coagulant tube with calcium EDTA in a refrigerator. Seven days later, the same dog was again fed the ivermectin-containing feed ad libitum and blood was collected four hours post-feeding. This sample was also refrigerated in the same fashion as the first sample.
The blood samples were then analyzed to determine the content of ivermectin therein, using HPLC. The procedure used was described in Diclidnson, Journal of Chromatography, 58:250-257 (1990). In this procedure, 0.5 ml of each blood sample was purified using solid phase extraction (SPE) cartridges and dissolved in a small volume of mobile phase for injection onto the HPLC column. The method has a limit of detection of about 2 ng/ml and uses an internal standard. After preparation of the internal standard, a standard curve is constructed using ivermectin-spiked blood samples. A known 1% ivermectin sample was used as the primary standard.
The blood samples from the dog were then analyzed for ivermectin content with HPLC peak heights corrected using the internal standard.

Ivermectin
average ivermectin content of the three frozen and the ambient-stored samples ([1]; co-extruded pillow dog food of Example 1, stored frozen or at room temperature in excess of six months, expected content 0.42 μg/kg, HPLC): 0.43 µg/kg | effect of storage conditions (frozen versus ambient) upon ivermectin potency ([1]; dog food of Example 1, frozen versus room temperature in excess of six months): little effect | ivermectin in dog blood samples [2]: 5 to 8 ng/mL
